{
  "source": "paper PMC8130611",
  "about": "(ACS infectious diseases, 2021)",
  "key": {"[1]": {"molecular_target": "TNF-R1–TNF-α interaction (Homo sapiens, UniProt P01375+P19438)", "sequence (P19438 30-211)": "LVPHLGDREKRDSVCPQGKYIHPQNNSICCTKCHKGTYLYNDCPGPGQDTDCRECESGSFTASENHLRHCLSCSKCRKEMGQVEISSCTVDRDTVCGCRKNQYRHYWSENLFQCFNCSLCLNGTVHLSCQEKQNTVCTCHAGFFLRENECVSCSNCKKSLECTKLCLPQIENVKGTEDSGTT", "sequence (P01375 85-233)": "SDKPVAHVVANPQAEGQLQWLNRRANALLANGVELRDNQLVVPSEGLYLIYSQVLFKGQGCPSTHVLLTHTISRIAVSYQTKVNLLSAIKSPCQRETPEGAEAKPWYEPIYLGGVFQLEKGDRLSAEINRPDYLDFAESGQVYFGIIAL", "experiment": "cell-free ELISA-type counter-assay, inhibition of TNF-R1–TNF-α interaction", "format": "binding"}, "[2]": {"tested_on": "THP-1 human cells", "details": "concentrations of up to 200 μM; ref [61], [62]; cited from earlier work"}, "[3]": {"tested_on": "SARS-CoV", "details": "cited from earlier work"}, "[4]": {"molecular_target": "SARS-CoV-2-S-RBD–hACE2 PPI (Severe acute respiratory syndrome coronavirus 2, UniProt P0DTC2)", "format": "binding, human", "details": "for IC50: read-out: IC50, inhibition of SARS-CoV-2-RBD binding to hACE2"}, "[5]": {"tested_on": "HEK293T cells"}, "[6]": {"tested_on": "BacMam-based pseudovirus bearing the SARS-CoV-2 S protein", "format": "cell-based"}},
  "note": "Entries after “also recorded” stand apart in the source; their conditions may differ.",
  "data": [
    {"molecule": "Nc1c(/N=N/c2ccc(-c3ccc(/N=N/c4cc(S(=O)(=O)O)c5ccccc5c4N)cc3)cc2)cc(S(=O)(=O)O)c2ccccc12", "note": "[Congo red]", "values": [
      {"measurement": "IC50", "setting": "[1]", "result": 6, "unit": "µM"}
    ]},
    {"molecule": "O=C(Nc1ccc(-c2ccc(C(=O)Nc3cccc4cccc(S(=O)(=O)O)c34)cc2)cc1)c1ccc([N+](=O)[O-])cc1", "note": "[DRI-C21041]", "values": [
      {"measurement": "effect on viability of THP-1 human cells", "setting": "[2]", "result": "did not have significant effects"}
    ]},
    {"molecule": "CN1CCN(c2ccc(CNC(=O)c3ccno3)cc2)CC1", "note": "[SSAA09E2]", "values": [
      {"measurement": "activities of previously identified candidates", "setting": "[3]", "result": 3.1, "unit": "µM"}
    ]},
    {"molecule": "OC(COc1cccc(OCC(O)CN2CCCCC2)c1)CN1CCCCC1", "note": "(stereo not shown) [VE607]", "values": [
      {"measurement": "activities of previously identified candidates", "setting": "[3]", "result": 1.6, "unit": "µM"}
    ]},
    {"molecule": "CCOc1ccc(N=Nc2ccc(-c3ccc(N=Nc4c(O)ccc5cc(S(=O)(=O)O)cc(S(=O)(=O)O)c45)c(C)c3)cc2C)cc1", "note": "[calcomine scarlet 3B]", "values": [
      {"measurement": "IC50", "setting": "[4]", "result": 4.25, "unit": "µM"}
    ]},
    {"molecule": "Nc1ccc(N=Nc2ccc(-c3ccc(N=Nc4c(S(=O)(=O)O)cc5cc(S(=O)(=O)O)c(N=Nc6ccccc6)c(O)c5c4N)cc3)cc2)c(N)c1", "note": "[chlorazol black]", "values": [
      {"measurement": "IC50", "setting": "[4]", "result": 2.57, "unit": "µM"}
    ]},
    {"molecule": "CCN(CC)CCCC(C)Nc1ccnc2cc(Cl)ccc12", "note": "(stereo not shown) [chloroquine]", "values": [
      {"measurement": "cytotoxicity (MTS)", "setting": "[5]", "result": "noticeable cytotoxicity"}
    ]},
    {"molecule": "CCN(CCO)CCCC(C)Nc1ccnc2cc(Cl)ccc12", "note": "(stereo not shown) [hydroxychloroquine]", "values": [
      {"measurement": "inhibition of pseudovirus entry (BacMam), in words", "setting": "[6]", "result": "did not show any significant inhibition; also recorded: no effect"}
    ]},
    {"molecule": "CN(C)c1ccc2nc3ccc(=[N+](C)C)cc-3sc2c1", "note": "[methylene blue]", "values": [
      {"measurement": "activity in screening for inhibitors of SARS-CoV-2 RBD binding", "setting": "[4]", "result": "promising inhibitory activity"}
    ]},
    {"molecule": "Nc1c(N=Nc2ccc([N+](=O)[O-])cc2)c(S(=O)(=O)[O-])cc2cc(S(=O)(=O)[O-])c(N=Nc3ccccc3)c(O)c12.[Na+].[Na+]", "note": "[naphthol blue black]", "values": [
      {"measurement": "inhibitory activity on SARS-CoV-2-RBD–hACE2 binding (in words)", "setting": "[4]", "result": "no inhibitory activity"}
    ]},
    {"molecule": "O=C([O-])c1c(Cl)c(Cl)c(Cl)c(Cl)c1-c1c2cc(Br)c(=O)c(Br)c-2oc2c(Br)c([O-])c(Br)cc12.[Na+].[Na+]", "note": "[phloxine B]", "values": [
      {"measurement": "activity in screening for inhibitors of SARS-CoV-2 RBD binding", "setting": "[4]", "result": "strongest activity"}
    ]},
    {"molecule": "O=C([O-])c1c(Cl)c(Cl)c(Cl)c(Cl)c1-c1c2cc(I)c(=O)c(I)c-2oc2c(I)c([O-])c(I)cc12.[Na+].[Na+]", "note": "[rose Bengal]", "values": [
      {"measurement": "activity in screening for inhibitors of SARS-CoV-2 RBD binding", "setting": "[4]", "result": "strongest activity"}
    ]},
    {"molecule": "O=S(=O)([O-])c1ccc(N=Nc2c(O)ccc3cc(S(=O)(=O)[O-])ccc23)cc1.[Na+].[Na+]", "note": "[sunset yellow FCF]", "values": [
      {"measurement": "inhibitory activity on SARS-CoV-2-RBD–hACE2 binding (in words)", "setting": "[4]", "result": "no inhibitory activity"}
    ]},
    {"molecule": "Cc1ccc(C(=O)Nc2ccc(S(=O)(=O)O)c3cc(S(=O)(=O)O)cc(S(=O)(=O)O)c23)cc1NC(=O)c1cccc(NC(=O)Nc2cccc(C(=O)Nc3cc(C(=O)Nc4ccc(S(=O)(=O)O)c5cc(S(=O)(=O)O)cc(S(=O)(=O)O)c45)ccc3C)c2)c1", "note": "[suramin]", "values": [
      {"measurement": "inhibitory activity on SARS-CoV-2-RBD–hACE2 binding (in words)", "setting": "[4]", "result": "neither chloroquine nor suramin showed inhibitory activity; also recorded: no activity"}
    ]},
    {"molecule": "erythrosine B", "values": [
      {"measurement": "activity in screening for inhibitors of SARS-CoV-2 RBD binding", "setting": "[4]", "result": "strongest activity"},
      {"measurement": "IC50", "setting": "[4]", "result": 0.4, "unit": "µM"}
    ]}
  ]
}
